Measurements reported in ChEMBL document CHEMBL2439971, “Design, synthesis and antiproliferative evaluation of fluorenone analogs with DNA topoisomerase I inhibitory properties” (Bioorg Med Chem, 2013).

Key:
OVCAR-8 = assay: Cytotoxicity against human OVCAR8 cells at 10 uM after 48 hrs by sulforhodamine B assay relative to control; assay type: functional
RPMI-8226 [1] = assay: Cytotoxicity against human RPMI8226 cells after 48 hrs by sulforhodamine B assay; assay type: functional; conditions: RPMI-8226, 48 h
SNB-19 [2] = assay: Cytotoxicity against human SNB19 cells after 48 hrs by sulforhodamine B assay; assay type: functional; conditions: SNB-19, 48 h
MDA-MB-231 = assay: Cytotoxicity against human MDA-MB-231 cells at 10 uM after 48 hrs by sulforhodamine B assay relative to control; assay type: functional
MCF7 = assay: Cytotoxicity against human MCF7 cells after 48 hrs by sulforhodamine B assay; assay type: functional; conditions: MCF7, 48 h
CAKI-1 = assay: Cytotoxicity against human CAKI-1 cells at 10 uM after 48 hrs by sulforhodamine B assay relative to control; assay type: functional
SF-268 = assay: Cytotoxicity against human SF268 cells after 48 hrs by sulforhodamine B assay; assay type: functional; conditions: SF-268, 48 h
A549 = assay: Cytotoxicity against human A549/ATCC cells after 48 hrs by sulforhodamine B assay; assay type: functional; conditions: A549, 48 h
SW-620 = assay: Cytotoxicity against human SW620 cells after 48 hrs by sulforhodamine B assay; assay type: functional; conditions: SW-620, 48 h
SK-MEL-2 = assay: Cytotoxicity against human SK-MEL-2 cells after 48 hrs by sulforhodamine B assay; assay type: functional; conditions: SK-MEL-2, 48 h
DU-145 = assay: Cytotoxicity against human DU145 cells after 48 hrs by sulforhodamine B assay; assay type: functional; conditions: DU-145, 48 h
SNB-19 [3] = assay: Cytotoxicity against human SNB19 cells at 10 uM after 48 hrs by sulforhodamine B assay relative to control; assay type: functional
MOLT-4 [4] = assay: Cytotoxicity against human MOLT4 cells after 48 hrs by sulforhodamine B assay; assay type: functional; conditions: MOLT-4, 48 h
SK-MEL-28 = assay: Cytotoxicity against human SK-MEL-28 cells after 48 hrs by sulforhodamine B assay; assay type: functional; conditions: SK-MEL-28, 48 h
MOLT-4 [5] = assay: Cytotoxicity against human MOLT4 cells at 10 uM after 48 hrs by sulforhodamine B assay relative to control; assay type: functional
HCT-15 = assay: Cytotoxicity against human HCT15 cells after 48 hrs by sulforhodamine B assay; assay type: functional; conditions: HCT-15, 48 h
UACC-257 = assay: Cytotoxicity against human UACC257 cells at 10 uM after 48 hrs by sulforhodamine B assay relative to control; assay type: functional
NCI-H322M = assay: Cytotoxicity against human NCI-H322M cells at 10 uM after 48 hrs by sulforhodamine B assay relative to control; assay type: functional
HOP-92 = assay: Cytotoxicity against human HOP92 cells at 10 uM after 48 hrs by sulforhodamine B assay relative to control; assay type: functional
HL-60(TB) [6] = assay: Cytotoxicity against human HL-60(TB) cells after 48 hrs by sulforhodamine B assay; assay type: functional; conditions: HL-60, 48 h
HL-60(TB) [7] = assay: Cytotoxicity against human HL-60(TB) cells at 10 uM after 48 hrs by sulforhodamine B assay relative to control; assay type: functional
NCI-H460 = assay: Cytotoxicity against human NCI-H460 cells after 48 hrs by sulforhodamine B assay; assay type: functional; conditions: NCI-H460, 48 h
SF-539 = assay: Cytotoxicity against human SF539 cells at 10 uM after 48 hrs by sulforhodamine B assay relative to control; assay type: functional
RXF 393 = assay: Cytotoxicity against human RXF393 cells after 48 hrs by sulforhodamine B assay; assay type: functional; conditions: RXF 393, 48 h
NCI-H23 = assay: Cytotoxicity against human NCI-H23 cells at 10 uM after 48 hrs by sulforhodamine B assay relative to control; assay type: functional
MDA-MB-435 = assay: Cytotoxicity against human MDA-MB-435 cells after 48 hrs by sulforhodamine B assay; assay type: functional; conditions: MDA-MB-435, 48 h
KM12 = assay: Cytotoxicity against human KM12 cells at 10 uM after 48 hrs by sulforhodamine B assay relative to control; assay type: functional
RPMI-8226 [8] = assay: Cytotoxicity against human RPMI8226 cells at 10 uM after 48 hrs by sulforhodamine B assay relative to control; assay type: functional
M14 = assay: Cytotoxicity against human M14 cells after 48 hrs by sulforhodamine B assay; assay type: functional; conditions: M14, 48 h
HT-29 = assay: Cytotoxicity against human HT-29 cells at 10 uM after 48 hrs by sulforhodamine B assay relative to control; assay type: functional
HCT-116 = assay: Cytotoxicity against human HCT116 cells after 48 hrs by sulforhodamine B assay; assay type: functional; conditions: HCT-116, 48 h
HOP-62 = assay: Cytotoxicity against human HOP62 cells after 48 hrs by sulforhodamine B assay; assay type: functional; conditions: HOP-62, 48 h
CCRF-CEM = assay: Cytotoxicity against human CCRF-CEM cells at 10 uM after 48 hrs by sulforhodamine B assay relative to control; assay type: functional
NCI-H226 = assay: Cytotoxicity against human NCI-H226 cells at 10 uM after 48 hrs by sulforhodamine B assay relative to control; assay type: functional
UACC-62 = assay: Cytotoxicity against human UACC62 cells at 10 uM after 48 hrs by sulforhodamine B assay relative to control; assay type: functional
NCI-H522 = assay: Cytotoxicity against human NCI-H522 cells after 48 hrs by sulforhodamine B assay; assay type: functional; conditions: NCI-H522, 48 h
[9] = target: DNA topoisomerase 1 (Homo sapiens) (UniProt P11387); assay: Inhibition of recombinant human DNA topoisomerase 1-mediated relaxation of supercoiled pHOT DNA after 45 mins by agarose gel electrophoresis
DNA topoisomerase 1 (Homo sapiens), sequence (P11387 whole entry): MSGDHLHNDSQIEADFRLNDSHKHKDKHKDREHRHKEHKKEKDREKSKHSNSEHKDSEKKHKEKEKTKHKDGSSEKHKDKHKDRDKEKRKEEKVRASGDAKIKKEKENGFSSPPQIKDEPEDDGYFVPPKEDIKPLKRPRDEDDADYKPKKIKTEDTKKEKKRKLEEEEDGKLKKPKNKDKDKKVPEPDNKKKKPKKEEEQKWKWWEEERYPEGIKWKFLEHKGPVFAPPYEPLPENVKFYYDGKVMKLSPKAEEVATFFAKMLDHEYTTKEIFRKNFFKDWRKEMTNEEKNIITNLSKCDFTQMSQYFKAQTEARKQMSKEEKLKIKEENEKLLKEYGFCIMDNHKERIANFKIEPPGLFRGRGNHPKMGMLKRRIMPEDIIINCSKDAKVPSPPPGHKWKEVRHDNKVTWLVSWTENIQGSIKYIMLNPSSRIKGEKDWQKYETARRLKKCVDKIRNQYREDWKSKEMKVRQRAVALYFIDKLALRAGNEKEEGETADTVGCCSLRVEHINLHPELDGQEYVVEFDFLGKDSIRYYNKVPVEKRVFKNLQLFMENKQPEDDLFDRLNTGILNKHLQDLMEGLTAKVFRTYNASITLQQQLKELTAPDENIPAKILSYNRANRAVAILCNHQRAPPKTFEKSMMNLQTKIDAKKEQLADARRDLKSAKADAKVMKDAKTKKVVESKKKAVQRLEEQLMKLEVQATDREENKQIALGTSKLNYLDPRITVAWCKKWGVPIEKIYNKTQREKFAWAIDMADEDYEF

HCC 2998 = assay: Cytotoxicity against human HCC2998 cells at 10 uM after 48 hrs by sulforhodamine B assay relative to control; assay type: functional
[10] = read-out: LC50 (the source's name)

## CCCCNCC(=O)Nc1ccc2c(c1)C(=O)c1cc(NC(=O)CNCCCC)ccc1-2
OVCAR-8
  Activity: 9.6%
RPMI-8226 [1]
  GI50: 1.86 µM
  TGI: 4.9 µM
RPMI-8226 [1]; [10]
  CC50: 4.6 µM
SNB-19 [2]
  GI50: 2.54 µM
  TGI: 8.94 µM
SNB-19 [2]; [10]
  CC50: 30.6 µM
MDA-MB-231
  Activity: -27.12%
MCF7
  GI50: 2.25 µM
  TGI: 8.79 µM
MCF7; [10]
  CC50: 4.4 µM
CAKI-1
  Activity: 62.66%
SF-268
  GI50: 1.69 µM
  TGI: 3.97 µM
SF-268; [10]
  CC50: 9.33 µM
A549
  GI50: 1.53 µM
  TGI: 3.37 µM
A549; [10]
  CC50: 7.39 µM
SW-620
  GI50: 1.25 µM
  TGI: 3 µM
SW-620; [10]
  CC50: 7.16 µM
SK-MEL-2
  GI50: 1.76 µM
  TGI: 3.3 µM
SK-MEL-2; [10]
  CC50: 6.18 µM
DU-145
  GI50: 1.43 µM
  TGI: 3.37 µM
DU-145; [10]
  CC50: 7.94 µM
SNB-19 [3]
  Activity: 39.02%
MOLT-4 [4]
  GI50: 0.56 µM
  TGI: 2.29 µM
MOLT-4 [4]; [10]
  CC50: 7.26 µM
SK-MEL-28
  GI50: 1.94 µM
  TGI: 3.46 µM
SK-MEL-28; [10]
  CC50: 6.18 µM
MOLT-4 [5]
  Activity: -42.18%
HCT-15
  GI50: 1.26 µM
  TGI: 3.34 µM
HCT-15; [10]
  CC50: 8.89 µM
UACC-257
  Activity: -84.17%
NCI-H322M
  Activity: -0.61%
HOP-92
  Activity: 6.92%
HL-60(TB) [6]
  GI50: 1.1 µM
  TGI: 2.77 µM
HL-60(TB) [6]; [10]
  CC50: 6.98 µM
HL-60(TB) [7]
  Activity: -63.01%
NCI-H460
  GI50: 1.49 µM
  TGI: 3.35 µM
NCI-H460; [10]
  CC50: 7.53 µM
SF-539
  Activity: -82.99%
RXF 393
  GI50: 1.83 µM
  TGI: 3.52 µM
RXF 393; [10]
  CC50: 6.78 µM
NCI-H23
  Activity: 70.39%
MDA-MB-435
  GI50: 1.63 µM
  TGI: 3.4 µM
MDA-MB-435; [10]
  CC50: 7.1 µM
KM12
  Activity: 30.09%
RPMI-8226 [8]
  Activity: -37.38%
M14
  GI50: 1.6 µM
  TGI: 3.08 µM
M14; [10]
  CC50: 5.94 µM
HT-29
  Activity: -52.59%
HCT-116
  GI50: 0.81 µM
  TGI: 2.18 µM
HCT-116; [10]
  CC50: 5.16 µM
HOP-62
  GI50: 2.07 µM
  TGI: 6.74 µM
HOP-62; [10]
  CC50: 26 µM
CCRF-CEM
  Activity: -35.23%
NCI-H226
  Activity: 67.92%
UACC-62
  Activity: 7.57%
NCI-H522
  GI50: 2.08 µM
  TGI: 4.08 µM
NCI-H522; [10]
  CC50: 7.99 µM
[9]
  INH: < 5 µM
HCC 2998
  Activity: -50.75%
